Source: PubChem BioAssay AID1963438 (Molecular Pharmacology Branch, DTP, NCI, 2024)
Where “and” joins values, the source holds several entries; their conditions need not be identical. Equal entries are not always repeated. Blank lines part the entries; values can stand above or below the compound they belong to.

System: NCI-H510 multicellular tumor spheroid growth, % test/control
Assay: Anticancer human tumor NCI-H510 cell line growth inhibition [Asc];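 further: spheroids exposed to agents for 7 days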;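 on viability, T/C: 100% = DMSO vehicle control wells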
Settings: for viability, T/C: stronger effect = lower value
Procedure, shortened: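 Complex spheroids combining tumor cells with HUVEC endothelial cells and human MSCs, at 37 degrees C, 5% CO2; agents tested alone or combined, half-log dilutions from at or near clinical Cmax, or 10 microM if Cmax unknown.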

[1] = curve of first compound, second compound 0.1 µM
[2] = curve of first compound, second compound 0.316 µM
[3] = curve of first compound, second compound 1 µM
[4] = curve of first compound, second compound 3.16 µM
[5] = curve of first compound, second compound 10 µM
[6] = second compound 0.1 µM, first compound 0.0316 µM
[7] = second compound 0.1 µM, first compound 0.1 µM
[8] = second compound 0.1 µM, first compound 0.316 µM
[9] = second compound 0.1 µM, first compound 1 µM
[10] = second compound 0.316 µM, first compound 0.0316 µM
[11] = second compound 0.316 µM, first compound 0.1 µM
[12] = second compound 0.316 µM, first compound 0.316 µM
[13] = second compound 0.316 µM, first compound 1 µM
[14] = second compound 1 µM, first compound 0.0316 µM
[15] = second compound 1 µM, first compound 0.1 µM
[16] = second compound 1 µM, first compound 0.316 µM
[17] = second compound 1 µM, first compound 1 µM
[18] = second compound 3.16 µM, first compound 0.0316 µM
[19] = second compound 3.16 µM, first compound 0.1 µM
[20] = second compound 3.16 µM, first compound 0.316 µM
[21] = second compound 3.16 µM, first compound 1 µM
[22] = second compound 10 µM, first compound 0.0316 µM
[23] = second compound 10 µM, first compound 0.1 µM
[24] = second compound 10 µM, first compound 0.316 µM
[25] = second compound 10 µM, first compound 1 µM

IC50 [1]: > 1000 nM
IC50 [2]: > 1000 nM
IC50 [3]: > 1000 nM
IC50 [4]: > 1000 nM
IC50 [5]: > 1000 nM
SMILES: CNC(C)C(=O)NC1CN(S(=O)(=O)c2cccc(S(=O)(=O)N3CCC4CCC(C(=O)NC(c5ccccc5)c5ccccc5)N4C(=O)C(NC(=O)C(C)NC)C3)c2)CCC2CCC(C(=O)NC(c3ccccc3)c3ccccc3)N2C1=O (configuration not stated) + Cc1c(S(C)(=O)=O)c(-c2cc(F)cc(N3CCN(c4ccc(NS(=O)(=O)c5ccc(NC(CCN6CCC(C(=O)OCCCP(=O)(O)O)CC6)CSc6ccccc6)c(S(=O)(=O)C(F)(F)F)c5)cc4)CC3)c2)c(-c2ccc(Cl)cc2)n1C(C)C
viability, T/C (second compound 0.1 µM, first compound 0.00316 µM): 114%
viability, T/C (second compound 0.1 µM, first compound 0.01 µM): 122%
viability, T/C [6]: 111%
viability, T/C [7]: 120%
viability, T/C [8]: 99.8%
viability, T/C [9]: 128%
viability, T/C (second compound 0.316 µM, first compound 0.00316 µM): 93.6%
viability, T/C (second compound 0.316 µM, first compound 0.01 µM): 117%
viability, T/C [10]: 107%
viability, T/C [11]: 102%
viability, T/C [12]: 104%
viability, T/C [13]: 112%
viability, T/C (second compound 1 µM, first compound 0.00316 µM): 115%
viability, T/C (second compound 1 µM, first compound 0.01 µM): 97.5%
viability, T/C [14]: 107%
viability, T/C [15]: 103%
viability, T/C [16]: 76.9%
viability, T/C [17]: 91%
viability, T/C (second compound 3.16 µM, first compound 0.00316 µM): 102%
viability, T/C (second compound 3.16 µM, first compound 0.01 µM): 112%
viability, T/C [18]: 109%
viability, T/C [19]: 96.6%
viability, T/C [20]: 85.7%
viability, T/C [21]: 104%
viability, T/C (second compound 10 µM, first compound 0.00316 µM): 110%
viability, T/C (second compound 10 µM, first compound 0.01 µM): 104%
viability, T/C [22]: 70.4%
viability, T/C [23]: 87.7%
viability, T/C [24]: 111%
viability, T/C [25]: 98.6%

IC50 (curve of compound): > 1000 nM
SMILES: CCN1CCN(Cc2ccc(Nc3ncc(F)c(-c4cc(F)c5nc(C)n(C(C)C)c5c4)n3)nc2)CC1
viability, T/C (compound 0.00316 µM): 99.7% and 83.9% and 97.2%
viability, T/C (compound 0.01 µM): 95.4% and 91.7% and 83.9%
viability, T/C (compound 0.0316 µM): 104% and 102% and 97.5%
viability, T/C (compound 0.1 µM): 93.1% and 78.6% and 112%
viability, T/C (compound 0.316 µM): 99.7% and 82.1% and 106%
viability, T/C (compound 1 µM): 76.2% and 98% and 106%

IC50 (curve of first compound, second compound 0.03 µM): > 10000 nM
IC50 (curve of first compound, second compound 0.0949 µM): > 10000 nM
IC50 (curve of first compound, second compound 0.3 µM): > 10000 nM
IC50 (curve of first compound, second compound 0.949 µM): > 10000 nM
IC50 (curve of first compound, second compound 3 µM): > 10000 nM
SMILES: C#Cc1c(F)ccc2cc(O)cc(-c3ncc4c(N5CC6CCC(C5)N6)nc(OCC56CCCN5CC(F)C6)nc4c3F)c12 (configuration not stated) + CCN1C(C(=O)NC23CCC(C(=O)O)(CC2)CC3)C(c2cccc(Cl)c2F)C2(C(=O)Nc3cc(Cl)ccc32)C12CCCCC2
viability, T/C (second compound 0.03 µM, first compound 0.0316 µM): 118%
viability, T/C (second compound 0.03 µM, first compound 0.1 µM): 98.2%
viability, T/C (second compound 0.03 µM, first compound 0.316 µM): 92.6%
viability, T/C (second compound 0.03 µM, first compound 1 µM): 92.1%
viability, T/C (second compound 0.03 µM, first compound 3.16 µM): 105%
viability, T/C (second compound 0.03 µM, first compound 10 µM): 110%
viability, T/C (second compound 0.0949 µM, first compound 0.0316 µM): 93.8%
viability, T/C (second compound 0.0949 µM, first compound 0.1 µM): 100%
viability, T/C (second compound 0.0949 µM, first compound 0.316 µM): 103%
viability, T/C (second compound 0.0949 µM, first compound 1 µM): 100%
viability, T/C (second compound 0.0949 µM, first compound 3.16 µM): 103%
viability, T/C (second compound 0.0949 µM, first compound 10 µM): 95.4%
viability, T/C (second compound 0.3 µM, first compound 0.0316 µM): 109%
viability, T/C (second compound 0.3 µM, first compound 0.1 µM): 113%
viability, T/C (second compound 0.3 µM, first compound 0.316 µM): 92.5%
viability, T/C (second compound 0.3 µM, first compound 1 µM): 107%
viability, T/C (second compound 0.3 µM, first compound 3.16 µM): 91.4%
viability, T/C (second compound 0.3 µM, first compound 10 µM): 87.6%
viability, T/C (second compound 0.949 µM, first compound 0.0316 µM): 93%
viability, T/C (second compound 0.949 µM, first compound 0.1 µM): 108%
viability, T/C (second compound 0.949 µM, first compound 0.316 µM): 98%
viability, T/C (second compound 0.949 µM, first compound 1 µM): 109%
viability, T/C (second compound 0.949 µM, first compound 3.16 µM): 106%
viability, T/C (second compound 0.949 µM, first compound 10 µM): 95.1%
viability, T/C (second compound 3 µM, first compound 0.0316 µM): 110%
viability, T/C (second compound 3 µM, first compound 0.1 µM): 107%
viability, T/C (second compound 3 µM, first compound 0.316 µM): 114%
viability, T/C (second compound 3 µM, first compound 1 µM): 99.9%
viability, T/C (second compound 3 µM, first compound 3.16 µM): 101%
viability, T/C (second compound 3 µM, first compound 10 µM): 102%

IC50 [1]: 693 nM
IC50 [2]: 905 nM
IC50 [3]: 761 nM
IC50 [4]: 961 nM
IC50 [5]: 546 nM
SMILES: C=C(F)C(=O)N1CCN(c2nc(OCC3CCCN3C)nc3c2CCN(c2cccc4cccc(Cl)c24)C3)CC1CC#N (configuration not stated) + Cc1c(S(C)(=O)=O)c(-c2cc(F)cc(N3CCN(c4ccc(NS(=O)(=O)c5ccc(NC(CCN6CCC(C(=O)OCCCP(=O)(O)O)CC6)CSc6ccccc6)c(S(=O)(=O)C(F)(F)F)c5)cc4)CC3)c2)c(-c2ccc(Cl)cc2)n1C(C)C
viability, T/C [6]: 103%
viability, T/C [7]: 85.7%
viability, T/C [8]: 86%
viability, T/C [9]: 33.7%
viability, T/C (second compound 0.1 µM, first compound 3.16 µM): 0.61%
viability, T/C (second compound 0.1 µM, first compound 10 µM): 0.12%
viability, T/C [10]: 105%
viability, T/C [11]: 95%
viability, T/C [12]: 86.2%
viability, T/C [13]: 48.9%
viability, T/C (second compound 0.316 µM, first compound 3.16 µM): 0.67%
viability, T/C (second compound 0.316 µM, first compound 10 µM): 0.11%
viability, T/C [14]: 113%
viability, T/C [15]: 125%
viability, T/C [16]: 99.8%
viability, T/C [17]: 34.8%
viability, T/C (second compound 1 µM, first compound 3.16 µM): 0.13%
viability, T/C (second compound 1 µM, first compound 10 µM): 0.11%
viability, T/C [18]: 118%
viability, T/C [19]: 110%
viability, T/C [20]: 94.1%
viability, T/C [21]: 52.2%
viability, T/C (second compound 3.16 µM, first compound 3.16 µM): 0.11%
viability, T/C (second compound 3.16 µM, first compound 10 µM): 0.14%
viability, T/C [22]: 86.2%
viability, T/C [23]: 103%
viability, T/C [24]: 80.6%
viability, T/C [25]: 15.6%
viability, T/C (second compound 10 µM, first compound 3.16 µM): 0.8%
viability, T/C (second compound 10 µM, first compound 10 µM): 0.19%
